Measurements from patent publication US20240336591A1, “ORGANIC PYRIDINE-PYRAZOLE COMPOUNDS AND THEIR USES” (priority 2021, published 2024).
Like-named read-outs stand apart in the source and are kept apart here.

Columns and labels:
[1] = molecular target: T1, Human PDE10A2 (Homo sapiens (Human), UniProt Q9Y233); assay: Cell based human PDE10A activity assay - cAMP HTRF assay in HEK 293 rhPDE10A2 cell line
Experimental: Semi log compound dilutions starting at a final concentration of 10 μM were dispensed into a white 384 well plate, alongside DMSO and an Inhibited control using the Tecan D300e digital dispenser. HEK 293 cells overexpressing recombinant human PDE10A2 were seeded on top of the compounds at 2500 cells/well in a volume 5 μL/well. The plate was incubated at room temperature for 60 minutes. To induce endogenous cAMP, 5 μL/well of Forskolin at a final assay concentration of 10 μM was added to the plate. The plate was incubated at room temperature for a further 45 minutes. cAMP HTRF detection reagents were added, and the plate was incubated for 60 minutes at room temperature. […] Data was analysed using a 4-parameter fit.

[2] = Determination of CNS penetration in vivo (brain to plasma partitioning, Kpuu); set-up: species or system Male Sprague Dawley Rats; details: male, Sprague-Dawley, brain / plasma (unbound); rat, IV, 1 mg/kg, 10-30 min post dose
[3] = molecular target: T1, Human PDE10A2; assay: Biochemical human PDE10A activity assay - PDE10A2 Phosphate Sensor Assay; details: cGMP 3 μM substrate, PDE10A2 0.25 nM
Experimental: Biochemical Human PDE10A Activity Assay—PDE10A2 Phosphate Sensor Assay
Semi Log compound dilutions starting at a final concentration of 50 μM were dispensed into a black 384 well plate alongside, DMSO and an Inhibited control using the Echo Acoustic dispenser. […] Data was analysed using a 4-parameter fit.

[4] = tested on: inflamed colonic mucosa from ulcerative colitis patients; assay: Ex-vivo colon biopsy culture from ulcerative colitis patients, cytokine release (Protocol 1); format: cell-based, human; details: 100 nM; UC donor 3; vs vehicle control
Experimental: The effect of selective PDE10A inhibition was tested on inflamed colonic mucosa from ulcerative colitis patients taken during routine endoscopy (Protocol 1 detailed below). These samples retain a disease phenotype in ex-vivo culture, secrete high basal levels of inflammatory cytokines, and represent a highly relevant and translational disease model. The effect of the PDE10A inhibitors on levels of the inflammatory cytokines IL-6 and IL-8 released from these tissue samples were measured. Both IL-6 and IL-8 are key regulators in ulcerative colitis pathology and their levels correlate with disease severity (Waldner M J et al. Master regulator of intestinal disease: IL-6 in chronic inflammation and cancer development. Semin Immunol. 26(1), 75-9 (2014); Bernardo D et al. IL-6 promotes immune responses in human ulcerative colitis and induces a skin-homing phenotype in the dendritic cells and T-cells they stimulate. Eur J Immunol. 42(5), 1337-53 (2012); Pearl D S, Cytokine mucosal expression in ulcerative colitis, the relationship between cytokine release and disease activity. J Crohns Colitis. 7(6), 481-9 (2013)).
These colon biopsies retain an inflammatory phenotype and secrete high levels of inflammatory cytokines in ex-vivo culture.
Biopsy tissue was obtained from inflamed colonic mucosa from ulcerative colitis or Crohn's disease patients during routine endoscopy. Ex-vivo biopsy cultures for the analysis of inflammatory cytokine biomarkers were run as previously described (Vossenkämper A. et al. A CD3- specific antibody reduces cytokine production and alters phosphoprotein profiles in intestinal tissues from patients with inflammatory bowel disease. Gastroenterology, 147, 172-183 (2014)). Biopsies were incubated in organ culture for 24 h with the addition of positive control compounds, or specific PDE10A inhibitors. Supernatants collected at the end of the experiment were snap-frozen and stored at −70° C. For the measurement of cytokines, the frozen culture supernatants were thawed and analysed for levels of the inflammatory cytokines using Luminex cytokine assay kits (R&D Systems) and an R&D Systems MAGPIX® analyser. Mean values ±SDs were calculated for the levels of spontaneous cytokine production measured in biopsy culture supernatants from each treatment group.

[5] = Forskolin 10 μM, read-out: cAMP HTRF Assay in HEK 293 rhPDE10A2 cell line (pIC50) (converted)

T1 sequence (Q9Y233 267-1055): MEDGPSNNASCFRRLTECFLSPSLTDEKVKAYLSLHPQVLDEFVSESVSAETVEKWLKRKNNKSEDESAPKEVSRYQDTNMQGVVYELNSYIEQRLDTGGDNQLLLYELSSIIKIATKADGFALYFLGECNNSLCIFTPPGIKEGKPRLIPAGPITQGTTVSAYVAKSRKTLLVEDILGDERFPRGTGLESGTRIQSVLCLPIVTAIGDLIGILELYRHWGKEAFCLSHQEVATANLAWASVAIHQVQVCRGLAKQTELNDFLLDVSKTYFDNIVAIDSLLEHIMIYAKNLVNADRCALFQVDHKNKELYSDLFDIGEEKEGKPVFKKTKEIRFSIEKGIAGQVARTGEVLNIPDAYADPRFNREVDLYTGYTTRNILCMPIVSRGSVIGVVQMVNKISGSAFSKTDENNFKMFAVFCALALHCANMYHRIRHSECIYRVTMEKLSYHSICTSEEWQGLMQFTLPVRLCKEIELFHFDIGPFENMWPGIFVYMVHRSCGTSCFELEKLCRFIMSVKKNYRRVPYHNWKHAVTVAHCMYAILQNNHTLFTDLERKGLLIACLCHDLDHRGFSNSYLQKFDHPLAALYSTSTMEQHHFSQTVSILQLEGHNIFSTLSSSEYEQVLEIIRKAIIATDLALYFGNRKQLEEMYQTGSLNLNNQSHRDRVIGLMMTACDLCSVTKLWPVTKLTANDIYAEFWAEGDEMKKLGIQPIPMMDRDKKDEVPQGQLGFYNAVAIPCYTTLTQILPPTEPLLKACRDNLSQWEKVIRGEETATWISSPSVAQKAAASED

| Compound | IC50 [1] | Kp uu [2] | PDE10A2 Phosphate Sensor Enzyme Assay (pIC50) [3] | secreted levels of IL-6 [4] | secreted levels of IL-8 [4] | IC50 [1, 5] |
| --- | --- | --- | --- | --- | --- | --- |
| Cn1cc(-c2ccncc2)c(-c2ccc(OCc3nc4ccccc4cc3C(=O)O)cc2)n1 [Example 3, 2-[[4-[1-Methyl-4-(4-pyridyl)pyrazol-3-yl]phenoxy]methyl]quinoline-3-carboxylic acid] | 2.75 nM | 0.56 | 10.1 | – | – | – |
| Cn1cc(-c2ccncc2)c(-c2ccc(OCc3cc(C(=O)O)c4ccccc4n3)cc2)n1 [Example 4, Ammonium 2-[[4-[1-methyl-4-(4-pyridyl)pyrazol-3-yl]phenoxy]methyl]quinoline-4-carboxylate] | 0.813 nM | 0.32 | 10.1 | significantly reduce | significantly reduce | – |
| O=C(O)Cn1cc(-c2ccncc2)c(-c2ccc(OCc3ccc4ccccc4n3)cc2)n1 [Example 5, 2-[4-(4-Pyridyl)-3-[4-(2-quinolylmethoxy)phenyl]pyrazol-1-yl]acetic acid] | 75.9 nM | 0.02 | 9.41 | – | – | – |
| Cn1cc(-c2ccncc2)c(-c2ccc(OCc3nc4ccccc4cc3C(=O)NS(C)(=O)=O)cc2)n1 [Example 9, 2-[[4-[1-Methyl-4-(4-pyridyl)pyrazol-3-yl]phenoxy]methyl]-N-methylsulfonyl-quinoline-3-carboxamide] | 1.66 nM | 0.37 | 10.1 | significantly reduce | significantly reduce | – |
| Cn1cc(-c2ccncc2)c(-c2ccc(OCc3nc4ccccc4cc3C(=O)N=S(C)(C)=O)cc2)n1 [Example 10, N-[Dimethyl(oxo)-λ6-sulfanylidene]-2-[[4-[1-methyl-4-(4-pyridyl)pyrazol-3-yl]phenoxy]methyl]quinoline-3-carboxamide] | 1.1 nM | 0.02 | 10 | significantly reduce | significantly reduce | – |
| Cn1cc(-c2ccncc2)c(-c2ccc(OCc3cc(C(=O)N=S(C)(C)=O)c4ccccc4n3)cc2)n1 [Example 11, N-[Dimethyl(oxo)-λ6-sulfanylidene]-2-[[4-[1-methyl-4-(4-pyridyl)pyrazol-3-yl]phenoxy]methyl]quinoline-4-carboxamide] | 1 nM | 0.02 | 10.1 | significantly reduce | significantly reduce | – |
| CN(C(=O)c1cc2ccccc2nc1COc1ccc(-c2nn(C)cc2-c2ccncc2)cc1)S(C)(=O)=O [Example 15, N-Methyl-2-[[4-[1-methyl-4-(4-pyridyl)pyrazol-3-yl]phenoxy]methyl]-N-methylsulfonyl-quinoline-3-carboxamide] | 10.7 nM | 0.06 | 9.22 | – | – | – |
| Cn1cc(-c2ccncc2)c(-c2ccc(OCc3nc(C(=O)N=S(C)(C)=O)c4ccccc4n3)cc2)n1 [Example 17, N-[Dimethyl(oxo)-λ6-sulfanylidene]-2-[[4-[1-methyl-4-(4-pyridyl)pyrazol-3-yl]phenoxy]methyl]quinazoline-4-carboxamide] | 3.02 nM | 0.06 | 9.92 | significantly reduce | significantly reduce | – |
| Cn1cc(-c2ccncc2)c(-c2ccc(OCc3nc4ccccc4nc3C(=O)N=S(C)(C)=O)cc2)n1 [Example 18, N-[Dimethyl(oxo)-λ6-sulfanylidene]-3-[[4-[1-methyl-4-(4-pyridyl)pyrazol-3-yl]phenoxy]methyl]quinoxaline-2-carboxamide] | 102 nM | 0.03 | 9.34 | – | – | – |
| CS(=N)(=O)c1cc(COc2ccc(-c3n[nH]cc3-c3ccncc3)cc2)nc2ccccc12 (stereo not drawn) [Example 33, Imino-methyl-oxo-[2-[[4-[4-(4-pyridyl)-1H-pyrazol-3-yl]phenoxy]methyl]-4-quinolyl]-λ6-sulfane] | – | – | 9.32 | – | – | 8.91 nM |
| Cn1cc(-c2ccncc2)c(-c2ccc(OCc3cc(NS(C)(=O)=O)c4ccccc4n3)cc2)n1 [Example 34, N-[2-[[4-[1-Methyl-4-(4-pyridyl)pyrazol-3-yl]phenoxy]methyl]-4-quinolyl]methanesulfonamide] | – | – | 9.54 | – | – | 1.2 nM |
| CNC(=O)Nc1cc(COc2ccc(-c3nn(C)cc3-c3ccncc3)cc2)nc2ccccc12 [Example 35, 1-Methyl-3-[2-[[4-[1-methyl-4-(4-pyridyl)pyrazol-3-yl]phenoxy]methyl]-4-quinolyl]urea] | – | – | 9.67 | – | – | 3.47 nM |
| Cn1cc(-c2ccncc2)c(-c2ccc(OCc3cc(NC(=O)N=S(C)(C)=O)c4ccccc4n3)cc2)n1 [Example 36, 1-[Dimethyl(oxo)-λ6-sulfanylidene]-3-[2-[[4-[1-methyl-4-(4-pyridyl)pyrazol-3-yl]phenoxy]methyl]-4-quinolyl]urea] | – | – | 9.46 | – | – | 16.6 nM |
| Cn1cc(-c2ccncc2)c(-c2ccc(OCc3nc(N4CCS(=O)(=O)CC4)c4ccccc4n3)cc2)n1 [Example 37, 4-[2-[[4-[1-Methyl-4-(4-pyridyl)pyrazol-3-yl]phenoxy]methyl]quinazolin-4-yl]-1,4-thiazinane 1,1-dioxide] | – | – | 9.65 | – | – | 1.48 nM |
| Cn1cc(-c2ccncc2)c(-c2ccc(OCc3nc(N4CCNC(=O)C4)c4ccccc4n3)cc2)n1 [Example 38, 4-[2-[[4-[1-Methyl-4-(4-pyridyl)pyrazol-3-yl]phenoxy]methyl]quinazolin-4-yl]piperazin-2-one] | – | – | 10.1 | – | – | 0.269 nM |
| Cn1cc(-c2ccncc2)c(-c2ccc(OCc3nc(N4CC(N)C4)c4ccccc4n3)cc2)n1 [Example 39, 1-[2-[[4-[1-Methyl-4-(4-pyridyl)pyrazol-3-yl]phenoxy]methyl]quinazolin-4-yl]azetidin-3-amine] | – | – | 9.46 | – | – | 24.5 nM |
| Cn1cc(-c2ccncc2)c(-c2ccc(OCc3nc(N4CCNCC4)c4ccccc4n3)cc2)n1 [Example 40, 2-[[4-[1-Methyl-4-(4-pyridyl)pyrazol-3-yl]phenoxy]methyl]-4-piperazin-1-yl-quinazoline] | – | – | 8.98 | – | – | 4.57 nM |
| Cn1cc(-c2ccncc2)c(-c2ccc(OCc3nc4ccccc4nc3N3CC(N)C3)cc2)n1 [Example 41, 1-[3-[[4-[1-Methyl-4-(4-pyridyl)pyrazol-3-yl]phenoxy]methyl]quinoxalin-2-yl]azetidin-3-amine] | 7.59 nM | – | 9.45 | – | – | – |
| Cn1cc(-c2ccncc2)c(-c2ccc(OCc3nc4ccccc4nc3N3CCNCC3)cc2)n1 [Example 42, 2-[[4-[1-Methyl-4-(4-pyridyl)pyrazol-3-yl]phenoxy]methyl]-3-piperazin-1-yl-quinoxaline] | 12.3 nM | – | 8.96 | – | – | – |
